Measured values: patent publication US8466191B2, “Pyrroline derivatives against cell releasing tumor necrosis factor, preparation methods and uses thereof” (priority 2006, dated 2013)

test system: release of TNFα in peripheral blood mononuclear cells (PBMCs) stimulated by lipopolysaccharide (LPS); experiment: Inhibition of the release of TNFα in peripheral blood mononuclear cells (PBMCs) stimulated by lipopolysaccharide (LPS), ELISA; format: cell-based, human; conditions: 3 μM compound; PBMCs 1×10^6 cells/mL, 1 hour preincubation, LPS 0.1 μg/mL, 20 hours incubation, TNFα in supernatant by ELISA
Description: Pharmacological Research: Effects on the release of TNFα in peripheral blood mononuclear cells (PBMCs) stimulated by lipopolysaccharide (LPS) by compounds of the invention
Release of cytokine TNFα by PBMCs in the peripheral blood stimulated by lipid polysaccharide (LPS) was studied in vitro.
PBMCs collected from blood of at least three volunteers were pretreated with heparin by a gradient separation method, and washed three times with a 1640 culture medium (10% calf serum, 2 mM L-glutamine, […] mercaptoethanol, 50 μg/mL streptomycin, and 50 U/mL penicillin). The obtained PBMCs were then placed into a 24-well cell culture plate and the concentration was adjusted to 1×10^6 cells/mL with 1640 culture medium. The compounds to be tested were dissolved in dimethylsulfoxide to obtain a solution having a required concentration. The solution was added to the above-mentioned cell culture medium and cultured in an incubator (5% CO2, 90% humidity) for 1 hour. Then, LPS (Sigma) was added until the concentration reached 0.1 μg/mL (except for the control).
After 20 hours incubation, the content of TNFα in the supernatant of the PBMC culture medium was assayed using an ELISA kit (America Genzyme Co) by a standard method. The TNFα inhibition rate was calculated using values measured in the control well (not treated) and the test wells (treated with the compound to be tested). The concentration of compounds giving a 50% TNFα inhibition (IC50 value) was calculated using nonlinear regression analysis. Each concentration was determined twice and an average value was reported.

Row | Compound | Inhibition Rate (%)
1 | COC(=O)CC(c1ccc(OC)c(OC)c1)N1C(=O)c2cscc2C1=O (centres unmarked) [Example 1, methyl 3-(3,4-dimethoxy-phenyl)-3-(4,6-dioxo-4H-thiophene[3,4-c]pyrrole-5(6H)-yl)propionate] | 87.6%
2 | COC(=O)CCN1C(=O)c2cscc2C1=O [Example 15, methyl 3-(4,6-Dioxo-4H-thiophene[3,4-c]pyrrole-5(6H)-yl)propionate] | 40.9%
3 | COC(=O)CCCN1C(=O)c2cscc2C1=O [Example 16, methyl 4-(4,6-Dioxo-4H-thiophene[3,4-c]pyrrole-5(6H)-yl)butyrate] | 38.4%
4 | COC(=O)[C@H](c1ccccc1)N1C(=O)c2cscc2C1=O [Example 17, L-methyl 2-(4,6-dioxo-4H-thiophene[3,4-c]pyrrole-5(6H)-yl)-2-phenylacetate] | 83.5%
5 | COC(=O)[C@@H](c1ccccc1)N1C(=O)c2cscc2C1=O [Example 18, D-methyl 2-(4,6-dioxo-4H-thiophene[3,4-c]pyrrole-5(6H)-yl)-2-phenylacetate] | 84.1%
6 | COC(=O)CC(c1ccc(OC)c(OC)c1)N1C(=O)c2csc(N)c2C1=O (centres unmarked) [Example 23, methyl 3-(3,4-Dimethoxy-phenyl)-3-(1-amino-4,6-dioxo-4H-thiophene[3,4-c]pyrrole-5(6H)-yl)propionate] | 95.4%
7 | CCOc1ccc(C(CC(=O)OC)N2C(=O)c3csc(N)c3C2=O)cc1OC (centres unmarked) [Example 26, methyl 3-(3-Methoxy-4-ethoxy-phenyl)-3-(1-amino-4,6-dioxo-4H-thiophene[3,4-c]pyrrole-5(6H)-yl)propionate] | 93.6%
8 | COC(=O)[C@H](c1ccccc1)N1C(=O)c2csc(N)c2C1=O [Example 29, L-methyl 2-(1-amino-4,6-dioxo-4H-thiophene[3,4-c]pyrrole-5(6H)-yl)-2-phenylacetate] | 87.6%
9 | COC(=O)[C@@H](c1ccccc1)N1C(=O)c2csc(N)c2C1=O [Example 30, D-methyl 2-(1-amino-4,6-dioxo-4H-thiophene[3,4-c]pyrrole-5(6H)-yl)-2-phenylacetate] | 91.4%
10 | COC(=O)CC(c1ccc(OC)c(OC2CCCC2)c1)N1C(=O)c2csc(NC(C)=O)c2C1=O (centres unmarked) [Example 31, methyl 3-(3-Cyclopentyloxy-4-methoxy-phenyl)-3-(1-acetylamino-4,6-dioxo-4H-thiophene[3,4-c]pyrrole-5(6H)-yl)propionate] | 93.6%
11 | CCOc1ccc(C(CC#N)N2C(=O)c3csc(N)c3C2=O)cc1OC (centres unmarked) [Example 38, 3-(3-Methoxy-4-ethoxy-phenyl)-3-(1-amino-4,6-dioxo-4H-thiophene[3,4-c]pyrrole-5(6H)-yl)propionitrile] | 94.9%
12 | COc1ccc(C(CC#N)N2C(=O)c3csc(N)c3C2=O)cc1OC (centres unmarked) [Example 39, 3-(3,4-dimethoxy-phenyl)-3-(1-amino-4,6-dioxo-4H-thiophene[3,4-c]pyrrole-5(6H)-yl)propionitrile] | 93.4%
13 | COc1cc(C(CC#N)N2C(=O)c3csc(N)c3C2=O)ccc1OCc1ccccc1 (centres unmarked) [Example 40, 3-(3-Methoxy-4-benzyloxyphenyl)-3-(1-amino-4,6-dioxo-4H-thiophene[3,4-c]pyrrole-5(6H)-yl)propionitrile] | 83.6%
14 | CCOc1cc(C(CC#N)N2C(=O)c3csc(N)c3C2=O)ccc1OC (centres unmarked) [Example 41, 3-(3-Ethoxy-4-methoxy-phenyl)-3-(1-amino-4,6-dioxo-4H-thiophene[3,4-c]pyrrole-5(6H)-yl)propionitrile] | 91.2%
15 | COc1ccc(C(CC#N)N2C(=O)c3csc(N)c3C2=O)cc1OC1CCCC1 (centres unmarked) [Example 42, 3-(3-Cyclopentyloxy-4-methoxy-phenyl)-3-(1-amino-4,6-dioxo-4H-thiophene[3,4-c]pyrrole-5(6H)-yl)propionitrile] | 94.8%
16 | COc1cc(C(CCN(C)C)N2C(=O)c3cscc3C2=O)ccc1OCc1ccccc1 (centres unmarked) [Example 54, 5-(1-(3-Methoxy-4-benzyloxyphenyl)-3-dimethylamino-propyl)-5H-thiophene[3,4-c]pyrrole-4,6-dione] | 41.4%
17 | CCN(CC)CCC(c1ccc(OCc2ccccc2)c(OC)c1)N1C(=O)c2cscc2C1=O (centres unmarked) [Example 55, 5-(1-(3-Methoxy-4-benzyloxyphenyl)-3-diethylamino-propyl)-5H-thiophene[3,4-c]pyrrole-4,6-dione] | 50.2%
18 | CCOc1ccc(C(CC(=O)O)N2C(=O)c3cscc3C2=O)cc1OC (centres unmarked) [Example 58, 3-(3-Methoxy-4-ethoxy-phenyl)-3-(4,6-dioxo-4H-thiophene[3,4-c]pyrrole-5(6H)-yl)propionic acid] | 20.7%
19 | CCOc1ccc(C(CC(=O)NO)N2C(=O)c3cscc3C2=O)cc1OC (centres unmarked) [Example 59, 3-(3-Methoxy-4-ethoxy-phenyl)-3-(4,6-dioxo-4H-thiophene[3,4-c]pyrrole-5(6H)-yl)-N-hydroxy propionamide] | 80%

same assay, conditions: Homo sapiens, PBMC; 3 μM compound; PBMCs 1×10^6 cells/mL, 1 hour preincubation, LPS 0.1 μg/mL, 20 hours incubation, TNFα in supernatant by ELISA; read-out: Inhibition Rate (%)

Row | Compound | inhibition at 3 µM
20 | O=C1CCC(N2C(=O)c3ccccc3C2=O)C(=O)N1 (centres unmarked) [Thalidomide, reference compound] | 22%
